According to ChEMBL document CHEMBL1201862, “PubChem BioAssay data set” (2004):
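Following 48 hours of exposure in 96-well plates, responses at five concentrations were used to interpolate endpoints linearly. The concentration for 50% growth inhibition is given as GI50.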 Activity calls are given as the source filed them. Rule as the data show it: active = GI50 up to about 1.1 µM and inactive = higher.

Key:
Test in all cases: NCI-60 cell line screen, 48 h
786-0 = system: 786-0
A549 = system: A549
ACHN = system: ACHN
BT-549 = system: BT-549
CAKI-1 = system: CAKI-1
CCRF-CEM = system: CCRF-CEM
COLO 205 = system: COLO 205
DU-145 = system: DU-145
EKVX = system: EKVX
HCC 2998 = system: HCC 2998
HCT-116 = system: HCT-116
HCT-15 = system: HCT-15
HL-60 = system: HL-60
HOP-62 = system: HOP-62
HOP-92 = system: HOP-92
HT-29 = system: HT-29
Hs-578T = system: Hs-578T
IGROV-1 = system: IGROV-1
K562 = system: K562
KM12 = system: KM12
LOX IMVI = system: LOX IMVI
M14 = system: M14
MCF7 = system: MCF7
MDA-MB-231 = system: MDA-MB-231
MDA-MB-435 = system: MDA-MB-435
MDA-N = system: MDA-N
MOLT-4 = system: MOLT-4
Malme-3M = system: Malme-3M
NCI-H226 = system: NCI-H226
NCI-H23 = system: NCI-H23
NCI-H460 = system: NCI-H460
NCI/ADR-RES = system: NCI/ADR-RES
OVCAR-3 = system: OVCAR-3
OVCAR-4 = system: OVCAR-4
OVCAR-5 = system: OVCAR-5
OVCAR-8 = system: OVCAR-8
PC-3 = system: PC-3
RPMI-8226 = system: RPMI-8226
RXF 393 = system: RXF 393
SF-268 = system: SF-268
SF-295 = system: SF-295
SF-539 = system: SF-539
SK-MEL-28 = system: SK-MEL-28
SK-MEL-2 = system: SK-MEL-2
SK-MEL-5 = system: SK-MEL-5
SK-OV-3 = system: SK-OV-3
SN12C = system: SN12C
SNB-19 = system: SNB-19
SNB-75 = system: SNB-75
SR = system: SR
SW-620 = system: SW-620
T47D = system: T47D
TK-10 = system: TK-10
U-251 = system: U-251
UACC-257 = system: UACC-257
UACC-62 = system: UACC-62
UO-31 = system: UO-31
NCI-H522 = system: NCI-H522

Measured: GI50

CC(C)CC1NC(=O)CCC(NC(=O)C(Cc2ccc(O)cc2)NC(=O)OCc2ccccc2)C(=O)NC(Cc2ccccc2)C(=O)NC(Cc2ccccc2)NC1=O (stereo not given)
> 100 µM: HCT-15
inactive: 786-0 > 100 µM | A549 > 100 µM | ACHN > 100 µM | BT-549 > 100 µM | CAKI-1 > 100 µM | CCRF-CEM > 100 µM | COLO 205 > 100 µM | DU-145 > 100 µM | EKVX > 100 µM | HCC 2998 > 100 µM | HCT-116 > 100 µM | HL-60 > 100 µM | HOP-62 > 100 µM | HOP-92 > 100 µM | HT-29 > 100 µM | Hs-578T > 100 µM | IGROV-1 > 100 µM | K562 > 100 µM | KM12 > 100 µM | LOX IMVI > 100 µM | M14 > 100 µM | MCF7 > 100 µM | MDA-MB-231 > 100 µM | MDA-MB-435 > 100 µM | MDA-N > 100 µM | MOLT-4 > 100 µM | Malme-3M > 100 µM | NCI-H226 > 100 µM | NCI-H23 > 100 µM | NCI-H460 > 100 µM | NCI/ADR-RES > 100 µM | OVCAR-3 > 100 µM | OVCAR-4 > 100 µM | OVCAR-5 > 100 µM | OVCAR-8 > 100 µM | PC-3 > 100 µM | RPMI-8226 > 100 µM | RXF 393 > 100 µM | SF-268 > 100 µM | SF-295 > 100 µM | SF-539 > 100 µM | SK-MEL-28 > 100 µM | SK-MEL-2 > 100 µM | SK-MEL-5 > 100 µM | SN12C > 100 µM | SNB-19 56.6 µM | SNB-75 > 100 µM | SR > 100 µM | SW-620 > 100 µM | T47D > 100 µM | TK-10 > 100 µM | U-251 > 100 µM | UACC-257 > 100 µM | UACC-62 > 100 µM | UO-31 > 100 µM
active: SK-OV-3 0.578 µM

CCCCCCCCCCCCCOCCOCCOCCCCC(O)CCCCCCCCCC1=C[C@H](C)OC1=O (stereo not given in full)
19.1 µM: HCT-15
active: HCT-116 0.766 µM | HL-60 0.356 µM | NCI-H522 0.0488 µM
inactive: 786-0 17.6 µM | A549 7.55 µM | ACHN 28.6 µM | BT-549 11.1 µM | CAKI-1 19.1 µM | CCRF-CEM 9.86 µM | COLO 205 20.9 µM | DU-145 21.7 µM | HCC 2998 17 µM | HOP-62 30.8 µM | HT-29 15.6 µM | Hs-578T 14.9 µM | IGROV-1 18.1 µM | K562 21.2 µM | KM12 19.1 µM | LOX IMVI 4.31 µM | M14 27.2 µM | MCF7 10.1 µM | MDA-MB-231 22.4 µM | MDA-MB-435 16.9 µM | MDA-N 15 µM | MOLT-4 7.59 µM | NCI-H226 12.8 µM | NCI-H23 13.7 µM | NCI-H460 17.5 µM | NCI/ADR-RES 10 µM | OVCAR-3 18.6 µM | OVCAR-4 12.3 µM | OVCAR-5 28 µM | OVCAR-8 18.7 µM | PC-3 13.8 µM | RPMI-8226 1.96 µM | RXF 393 20.1 µM | SF-268 18.1 µM | SF-295 7.21 µM | SF-539 18.7 µM | SK-MEL-28 11.4 µM | SK-MEL-2 23 µM | SK-MEL-5 6.93 µM | SK-OV-3 31.8 µM | SN12C 21.4 µM | SNB-19 20.7 µM | SNB-75 21.1 µM | SR 2.08 µM | SW-620 16.4 µM | T47D 16.3 µM | TK-10 2.94 µM | U-251 14.1 µM | UACC-257 13.2 µM | UACC-62 20 µM | UO-31 16 µM

c1ccc2c(c1)ccn2CCc1c[nH]c2ccccc12
inactive: 786-0 > 10 µM | A549 > 10 µM | ACHN > 10 µM | BT-549 > 10 µM | CAKI-1 > 10 µM | CCRF-CEM > 10 µM | COLO 205 > 10 µM | DU-145 > 10 µM | EKVX > 10 µM | HCC 2998 > 10 µM | HCT-116 > 10 µM | HL-60 > 10 µM | HOP-62 > 10 µM | HOP-92 > 10 µM | HT-29 > 10 µM | Hs-578T > 10 µM | IGROV-1 > 10 µM | K562 > 10 µM | KM12 > 10 µM | LOX IMVI > 10 µM | M14 > 10 µM | MCF7 > 10 µM | MDA-MB-231 > 10 µM | MDA-MB-435 > 10 µM | MDA-N > 10 µM | MOLT-4 > 10 µM | Malme-3M > 10 µM | NCI-H226 8.07 µM | NCI-H23 > 10 µM | NCI-H460 > 10 µM | NCI-H522 > 10 µM | NCI/ADR-RES > 10 µM | OVCAR-3 > 10 µM | OVCAR-4 > 10 µM | OVCAR-5 > 10 µM | OVCAR-8 > 10 µM | PC-3 > 10 µM | RPMI-8226 > 10 µM | RXF 393 9.31 µM | SF-268 > 10 µM | SF-295 > 10 µM | SF-539 > 10 µM | SK-MEL-28 > 10 µM | SK-MEL-2 > 10 µM | SK-MEL-5 > 10 µM | SK-OV-3 > 10 µM | SN12C > 10 µM | SNB-19 > 10 µM | SNB-75 > 10 µM | SR > 10 µM | SW-620 > 10 µM | T47D > 10 µM | TK-10 > 10 µM | U-251 > 10 µM | UACC-257 > 10 µM | UACC-62 > 10 µM | UO-31 9.86 µM
> 10 µM: HCT-15
